Laboratory results reported in ChEMBL document CHEMBL1201862, “PubChem BioAssay data set” (2004).
Activity calls are given as the source filed them.

What was measured:
[1] = target: T1, Heat shock factor protein 1 (Mus musculus, UniProt P38532); assay: inhibition of MG132-induced HSE-luciferase signal, confirmation, cell-based, NIH3T3, luminescence, dose retest (AID 2382); format: functional;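 further: NIH3T3 fibroblasts with HSF1-driven luciferase reporter stressed by proteasome inhibitor MG132; luminescence from HSF1-driven luciferase expression after 8 hours of MG132 stress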
T1 sequence (P38532 whole entry): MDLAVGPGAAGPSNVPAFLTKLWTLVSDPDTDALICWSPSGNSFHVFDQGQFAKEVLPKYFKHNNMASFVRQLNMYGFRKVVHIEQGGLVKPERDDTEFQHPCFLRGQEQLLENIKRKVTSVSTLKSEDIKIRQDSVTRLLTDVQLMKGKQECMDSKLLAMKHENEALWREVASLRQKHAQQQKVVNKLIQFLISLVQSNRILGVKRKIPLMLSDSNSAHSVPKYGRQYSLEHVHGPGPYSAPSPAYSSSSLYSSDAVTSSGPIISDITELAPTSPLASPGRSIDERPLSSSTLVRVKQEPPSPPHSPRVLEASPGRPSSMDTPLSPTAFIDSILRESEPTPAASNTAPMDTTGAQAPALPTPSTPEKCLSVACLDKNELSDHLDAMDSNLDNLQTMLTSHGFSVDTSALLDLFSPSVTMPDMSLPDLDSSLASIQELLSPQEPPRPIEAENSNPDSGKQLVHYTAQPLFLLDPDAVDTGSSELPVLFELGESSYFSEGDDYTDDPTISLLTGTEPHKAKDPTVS

[2] = C. albicans growth with fluconazole, confirmation, fluorescence, retest (AID 2467); format: functional, cell-based
[3] = cytotoxicity toward NIH3T3 fibroblasts, dose response, counter-screen, cell-based, ATP luminescence, mouse fibroblasts (AID 2010); format: functional;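 further: cells exposed to compound for about 90 hours before reading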
[4] = target: Heat shock protein HSP 90-alpha (Homo sapiens, UniProt P07900); assay: Luminescence-based dose response biochemical high throughput screening assay for inhibitors of the Heat Shock Protein 90 (HSP90). [Related pubchem assays: 1831 (Summary AID.), 1846 (Confirmation screen.), 1789 (Primary screen.)]
[5] = THP-1 cell cytotoxicity, dose response, cytotoxicity control for non-replicating M. tuberculosis project (AID 489025); format: functional
[6] = HepG2 cell cytotoxicity, dose response, cytotoxicity control for non-replicating M. tuberculosis project (AID 489018); format: functional; settings: Mycobacterium tuberculosis
[7] = target: C-C chemokine receptor type 6 (Homo sapiens, UniProt P51684); assay: CCR6 receptor antagonists, dose response, cell-based, luminescent beta-arrestin readout (AID 504728); format: functional
[8] = Vero E6 cell cytotoxicity, dose response, cytotoxicity control for non-replicating M. tuberculosis project, secondary assay (AID 492998); format: functional, VeroE6; settings: Vero C1008
Nonstructural protein 1 = Nonstructural protein 1 (Influenza A virus, UniProt Q194T2); format: functional, Influenza A virus (A/California/07/2009(H1N1))
Hexokinase HKDC1 = target: T2, Hexokinase HKDC1 (Homo sapiens, UniProt Q2TB90); assay: HKDC1 hexokinase inhibitors, dose response, biochemical, W721R variant (AID 504729); format: functional
T2 sequence (Q2TB90 whole entry): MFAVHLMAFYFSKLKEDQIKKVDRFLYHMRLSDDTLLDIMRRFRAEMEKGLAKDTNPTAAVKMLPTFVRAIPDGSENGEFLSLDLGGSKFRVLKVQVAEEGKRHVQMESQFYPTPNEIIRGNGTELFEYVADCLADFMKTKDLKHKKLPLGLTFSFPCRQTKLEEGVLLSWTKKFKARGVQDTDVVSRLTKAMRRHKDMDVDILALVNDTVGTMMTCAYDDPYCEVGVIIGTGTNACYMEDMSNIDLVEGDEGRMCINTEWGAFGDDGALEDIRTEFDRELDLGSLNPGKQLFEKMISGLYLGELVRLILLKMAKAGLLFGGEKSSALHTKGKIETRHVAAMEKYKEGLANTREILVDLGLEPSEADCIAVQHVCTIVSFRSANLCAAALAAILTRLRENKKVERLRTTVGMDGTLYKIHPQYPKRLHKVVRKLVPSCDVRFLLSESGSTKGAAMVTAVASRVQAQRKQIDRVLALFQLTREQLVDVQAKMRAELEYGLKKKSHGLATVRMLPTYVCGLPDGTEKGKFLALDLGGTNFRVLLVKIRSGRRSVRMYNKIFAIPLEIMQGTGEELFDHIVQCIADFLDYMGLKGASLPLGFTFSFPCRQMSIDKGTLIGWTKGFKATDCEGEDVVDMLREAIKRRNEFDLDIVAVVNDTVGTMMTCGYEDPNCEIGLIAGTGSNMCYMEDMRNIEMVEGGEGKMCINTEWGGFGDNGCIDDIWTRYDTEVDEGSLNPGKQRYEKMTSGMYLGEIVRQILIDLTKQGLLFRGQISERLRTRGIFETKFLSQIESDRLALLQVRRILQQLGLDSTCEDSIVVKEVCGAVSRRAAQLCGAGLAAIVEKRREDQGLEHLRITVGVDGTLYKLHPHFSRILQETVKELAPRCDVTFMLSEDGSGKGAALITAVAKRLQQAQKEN

Protein RecA = target: T3, Protein RecA (Mycobacterium tuberculosis, UniProt P9WHJ3); assay: Fluorescence Cell-Free Homogeneous Dose Retest to Identify Inhibitors of RecA-Intein Splicing Activity. [Related pubchem assays (depositor defined):AID2097, AID2223, AID489010, AID492950]; format: functional
T3 sequence (P9WHJ3 whole entry): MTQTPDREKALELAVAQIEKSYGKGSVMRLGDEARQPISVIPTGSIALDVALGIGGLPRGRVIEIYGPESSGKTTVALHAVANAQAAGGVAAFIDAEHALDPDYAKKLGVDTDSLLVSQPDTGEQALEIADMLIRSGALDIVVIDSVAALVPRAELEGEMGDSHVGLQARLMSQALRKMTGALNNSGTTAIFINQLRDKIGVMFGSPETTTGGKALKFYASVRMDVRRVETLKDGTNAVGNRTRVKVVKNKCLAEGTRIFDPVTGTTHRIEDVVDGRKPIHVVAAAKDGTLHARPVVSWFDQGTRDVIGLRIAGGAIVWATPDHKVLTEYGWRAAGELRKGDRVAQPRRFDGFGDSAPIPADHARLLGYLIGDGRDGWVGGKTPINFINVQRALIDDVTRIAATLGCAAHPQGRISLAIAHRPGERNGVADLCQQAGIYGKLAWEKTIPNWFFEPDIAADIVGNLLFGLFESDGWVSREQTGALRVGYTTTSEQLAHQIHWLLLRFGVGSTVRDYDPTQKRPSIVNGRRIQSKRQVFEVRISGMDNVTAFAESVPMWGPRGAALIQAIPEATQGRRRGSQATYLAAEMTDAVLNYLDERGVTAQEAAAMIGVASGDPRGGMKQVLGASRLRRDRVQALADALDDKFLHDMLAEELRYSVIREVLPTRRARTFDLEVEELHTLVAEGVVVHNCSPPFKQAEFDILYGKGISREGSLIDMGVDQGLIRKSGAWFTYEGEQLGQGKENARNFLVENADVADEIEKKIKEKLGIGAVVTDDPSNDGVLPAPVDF

INS1 = assay: beta cell apoptosis inhibitors, cytokine rescue, dose response, luminescence, retest (AID 449756); format: functional, cell-based; settings: Rattus norvegicus;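 further: cell death triggered by IL-1 beta plus TNF-alpha plus IFN-gamma mixture; protective hits raise ATP signal compared with cytokine alone wells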

Sequence of C-C chemokine receptor type 6 (P51684 whole entry): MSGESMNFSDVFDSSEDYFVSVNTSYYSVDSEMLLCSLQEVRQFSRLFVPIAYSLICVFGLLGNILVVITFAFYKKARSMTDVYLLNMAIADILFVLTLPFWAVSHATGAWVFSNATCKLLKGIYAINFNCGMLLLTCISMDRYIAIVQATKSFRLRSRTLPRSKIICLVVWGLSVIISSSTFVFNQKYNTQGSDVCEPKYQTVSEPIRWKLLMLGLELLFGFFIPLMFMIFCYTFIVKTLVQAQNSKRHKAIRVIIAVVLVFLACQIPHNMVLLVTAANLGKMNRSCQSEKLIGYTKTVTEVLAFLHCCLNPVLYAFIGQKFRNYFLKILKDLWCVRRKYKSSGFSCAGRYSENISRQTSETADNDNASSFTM
Sequence of Nonstructural protein 1 (Q194T2 whole entry): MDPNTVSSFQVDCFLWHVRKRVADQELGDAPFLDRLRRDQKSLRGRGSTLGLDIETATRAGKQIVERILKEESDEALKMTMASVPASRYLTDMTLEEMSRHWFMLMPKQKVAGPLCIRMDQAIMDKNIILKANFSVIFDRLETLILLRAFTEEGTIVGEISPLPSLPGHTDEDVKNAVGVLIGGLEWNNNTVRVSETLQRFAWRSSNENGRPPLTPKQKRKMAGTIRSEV

O=C1C(Nc2ccccc2)=C/C(=N/S(=O)(=O)c2cccs2)c2ccccc21
inactive: IC50 [7] 34.8 µM
active: EC50 [1] 1.09 µM | EC50 [2] 1.35 µM | EC50 [3] 1.29 µM | IC50 [4] 0.348 µM | CC50 [5] 1.8 µM | CC50 [6] 13.9 µM | CC50 [8] 7.43 µM | IC50 (Nonstructural protein 1) 9.04 µM | IC50 (Hexokinase HKDC1) 4.88 µM | EC50 (Protein RecA) 0.143 µM | AC50 (INS1) 0.907 µM
